Data published in patent publication US8362050B2, “Compounds and methods for modulating G protein-coupled receptors” (IRM LLC, priority 2008, dated 2013).
Where two headings read alike, the source gives them in different places.

Molecular target: T1, Human GPR120 (Homo sapiens, UniProt Q5NUL3)
T1 construct: Ga16 (promiscuous G protein) fusion partner; expressed in transfected cells
T1 sequence (Q5NUL3 with tags, fused parts or gaps): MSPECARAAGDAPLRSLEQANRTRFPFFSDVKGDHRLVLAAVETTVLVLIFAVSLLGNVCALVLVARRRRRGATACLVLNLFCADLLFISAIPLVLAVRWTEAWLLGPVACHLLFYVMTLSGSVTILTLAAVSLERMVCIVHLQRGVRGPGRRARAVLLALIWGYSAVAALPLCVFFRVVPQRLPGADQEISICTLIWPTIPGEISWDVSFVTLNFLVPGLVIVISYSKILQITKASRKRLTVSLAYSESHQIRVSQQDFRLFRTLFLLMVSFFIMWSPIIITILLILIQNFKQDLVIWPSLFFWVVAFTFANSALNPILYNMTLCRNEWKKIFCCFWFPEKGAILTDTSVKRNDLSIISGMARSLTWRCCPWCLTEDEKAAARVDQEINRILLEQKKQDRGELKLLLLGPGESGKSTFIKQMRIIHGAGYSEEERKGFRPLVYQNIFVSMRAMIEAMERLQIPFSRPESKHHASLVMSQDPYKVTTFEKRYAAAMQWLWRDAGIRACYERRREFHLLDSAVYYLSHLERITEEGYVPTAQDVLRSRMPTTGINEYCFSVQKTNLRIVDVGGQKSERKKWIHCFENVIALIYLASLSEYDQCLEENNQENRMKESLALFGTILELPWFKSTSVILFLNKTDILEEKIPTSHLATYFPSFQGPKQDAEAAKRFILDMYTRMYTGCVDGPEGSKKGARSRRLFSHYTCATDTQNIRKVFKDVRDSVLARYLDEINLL
Test: FLIPR assay: agonist-induced calcium mobilization in HEK293-GPR120-Ga16 cells
Assay type: cell-based
Conditions: for EC50: GPR120 activation, calcium mobilization, HEK293-GPR120-Ga16 cells; for Emax: % enhancement of the test compound relative to a known compound, read-out: % Efficiency
Description: Human GPR120 stable cell-line was generated in HEK293 cells. GPR120 (Accession number BC101175) is fused to a promiscuous G protein, Ga16. The expression plasmid is transfected into HEK293 cells using Fugene6 following manufacturer's instruction. Stable cell-lines are generated following drug selection.
FLIPR (Fluorimetric Imaging Plate Reader, Molecular Devices) assays are performed to measure agonist-induced calcium mobilization in the GPR120-expressing cells. One day before the FLIPR assay, HEK293-GPR120-Ga16 cells are seeded into poly-D-lysine coated black-wall-clear bottom 384 well plates (Falcon) at 25,000 cells per well in 40 μl DMEM supplemented with 1% of FBS. The cells are incubated overnight at 37° C. in a humidified incubator. The medium is aspirated on the day of the FLIPR assay. The cells are incubated with 50 μl/well of the assay buffer (HBSS, 20 mM HEPES, 2.5 mM probenecid, pH7.4) containing Fluo-4 NM dye (Invitrogen cat# F36205) at 37° C. for 45 minutes, and then equilibrated at room temperature for 30 minutes. Compounds are dissolved in DMSO and diluted to desired concentrations with assay buffer. Fluorescent output is measured immediately following compound addition (12.5 μl/well) on the FLIPR machine.
An EC50 value was calculated using the change of fluorescent intensity from the reaction initiation. […] In some examples, compounds provided herein have EC50 values from 0.1 μM to 5 μM, while in other examples from 0.5 μM to 5 μM.
The EC50 value in those experiments is given as that concentration of the test compound in question that provoke a response halfway between the baseline and maximum responses. In certain examples compounds of Formula (I) have EC50 values from 0.001 μM to 5 μM. In other examples, compounds of Formula (I) have EC50 values from 0.001 μM to 4 μM. In other examples, compounds of Formula (I) have EC50 values from 0.001 μM to 3 μM. In other examples, compounds of Formula (I) have EC50 values from 0.001 μM to 2 μM. In other examples, compounds of Formula (I) have EC50 values from 0.001 μM to 1 μM. In other examples, compounds of Formula (I) have EC50 values from 0.001 μM to 0.5 μM. […] In other examples, compounds of Formula (I) have EC50 values from 0.001 μM to 0.1 μM.
The % efficiency in those experiments is given as that % enhancement of the test compound in question relative to a known compound. In certain examples compounds of Formula (I) have a % efficiency values from 50% to 150%. In other examples, compounds of Formula (I) have a % efficiency values from 55% to 150%. In other examples, compounds of Formula (I) have a % efficiency values from 60% to 150%. In other examples, compounds of Formula (I) have a % efficiency values from 65% to 150%. In other examples, compounds of Formula (I) have a % efficiency values from 70% to 150%. In other examples, compounds of Formula (I) have a % efficiency values from 75% to 150%. In other examples, compounds of Formula (I) have a % efficiency values from 80% to 150%. In other examples, compounds of Formula (I) have a % efficiency values from 85% to 150%. In other examples, compounds of Formula (I) have a % efficiency values from 90% to 150%. In other examples, compounds of Formula (I) have a % efficiency values from 95% to 150%. In other examples, compounds of Formula (I) have a % efficiency values from 100% to 150%.

EC50 (read-out: EC50 Range) | Emax | EC50 (read-out: EC50) | SMILES
500 to 1000 nM |  |  | COc1cccc(-c2noc(-c3cccc(C(=O)O)c3)n2)c1 [Compound 53, 3-(3-(3-methoxyphenyl)-1,2,4-oxadiazol-5-yl)benzoic acid]
1000 to 5000 nM | 68.9% | 1400 nM | COc1ccc(-n2cc(-c3cccc(C(=O)O)c3)nn2)cc1 [Compound 54, 3-(1-(4-methoxyphenyl)-1H-1,2,3-triazol-4-yl)benzoic acid]
1000 to 5000 nM |  |  | COc1ccc(-c2cn(-c3cccc(C(=O)O)c3)nn2)cc1 [Compound 55, 3-(4-(4-methoxyphenyl)-1H-1,2,3-triazol-1-yl)benzoic acid]
250 to 500 nM | 60.4% | 290 nM | COc1ccc(-c2nc(-c3cccc(C(=O)O)c3)no2)cc1 [Compound 56, 3-(5-(4-methoxyphenyl)-1,2,4-oxadiazol-3-yl)-benzoic acid]
1000 to 5000 nM | 53.7% | 1340 nM | Cc1ccc(-c2cn(-c3cccc(C(=O)O)c3)nn2)cc1 [Compound 57, 3-(4-p-tolyl-1H-1,2,3-triazol-1-yl)benzoic acid]
1000 to 5000 nM |  |  | O=C(O)c1cccc(-n2cc(-c3ccc(C(F)(F)F)cc3)nn2)c1 [Compound 58, 3-(4-(4-(trifluoromethyl)phenyl)-1H-1,2,3-triazol-1-yl)benzoic acid]
1000 to 5000 nM |  |  | O=C(O)c1cccc(-n2cc(-c3ccc(Cl)cc3)nn2)c1 [Compound 59, 3-(4-(4-chlorophenyl)-1H-1,2,3-triazol-1-yl)benzoic acid]
1000 to 5000 nM |  |  | O=C(O)c1cccc(-n2cc(-c3ccccc3F)nn2)c1 [Compound 60, 3-(4-(2-fluorophenyl)-1H-1,2,3-triazol-1-yl)benzoic acid]
500 to 1000 nM |  |  | CCc1ccc(-c2cn(-c3cccc(C(=O)O)c3)nn2)cc1 [Compound 61, 3-(4-(4-ethylphenyl)-1H-1,2,3-triazol-1-yl)benzoic acid]
250 to 500 nM |  |  | O=C(O)c1cccc(-n2cc(-c3ccc(F)cc3F)nn2)c1 [Compound 62, 3-(4-(2,4-difluorophenyl)-1H-1,2,3-triazol-1-yl)benzoic acid]
1000 to 5000 nM |  |  | O=C(O)c1cccc(-n2cc(-c3ccc(Br)cc3)nn2)c1 [Compound 63, 3-(4-(4-bromophenyl)-1H-1,2,3-triazol-1-yl)benzoic acid]
500 to 1000 nM | 69% | 878 nM | CC(C)c1ccc(-n2cc(-c3cccc(C(=O)O)c3)nn2)cc1 [Compound 64, 3-(1-(4-isopropylphenyl)-1H-1,2,3-triazol-4-yl)benzoic acid]
1000 to 5000 nM |  |  | CCc1ccc(-c2cn(-c3cc(OC)cc(C(=O)O)c3)nn2)cc1 [Compound 65, 3-(4-(4-ethylphenyl)-1H-1,2,3-triazol-1-yl)-5-methoxybenzoic acid]
500 to 1000 nM |  |  | CCc1ccc(-c2cn(-c3cc(F)cc(C(=O)O)c3)nn2)cc1 [Compound 66, 3-(4-(4-ethylphenyl)-1H-1,2,3-triazol-1-yl)-5-fluorobenzoic acid]
100 to 250 nM |  |  | Cc1ccc(-n2cc(-c3cccc(C(=O)O)c3)nn2)c(F)c1 [Compound 67, 3-(1-(2-fluoro-4-methylphenyl)-1H-1,2,3-triazol-4-yl)benzoic acid]
> 5000 nM |  |  | CCc1ccc(-c2cn(-c3ccc(Cl)c(C(=O)O)c3)nn2)cc1 [Compound 68]
1000 to 5000 nM |  |  | CCc1ccc(-c2cn(-c3ccc(F)c(C(=O)O)c3)nn2)cc1 [Compound 69, 5-(4-(4-ethylphenyl)-1H-1,2,3-triazol-1-yl)-2-fluorobenzoic acid]
1000 to 5000 nM |  |  | CCc1ccc(-c2cn(-c3cc(C(=O)O)ccc3F)nn2)cc1 [Compound 70, 3-(4-(4-ethylphenyl)-1H-1,2,3-triazol-1-yl)-4-fluorobenzoic acid]
